Assay [1] concerns luciferase reporter bearing TCF/LEF binding elements. As to the kind of experiment: TCF/LEF luciferase reporter assay in UMR-106 cells. The following applies: for effect on PTH-stimulated TCF/LEF luciferase (transcriptional) activity: UMR-106 cells treated with PTH. It counts as cell-based, rat. From the text:
HEK293, UMR-106 and mouse embryonic fibroblast (MEF) cells were maintained in Dulbecco's Modified Eagle Medium (DMEM) with 10% Fetal Calf Serum (FCS). Mouse Wnt3a conditioned medium (Wnt3a CM) was produced from mouse L cells stably transfected with mouse Wnt3a (American Type Culture Collection; Manassas, Va.) and control conditioned medium (Control CM) was from non-transfected L cells. IgG, LRP6N-IgG, DKK1, Sclerostin, VSVG-LRP6N and Myc-Fz8CRD conditioned media were produced from HEK 293 cells transfected with the individual plasmids. Transfections were carried out using lipofectamine reagent (Invitrogen; Carlsbad, Calif.). Luciferase assays were carried out in either UMR-106 or HEK 293 cells as described previously (Wan et al., Am. J. Pathol. 166:1379-92 (2005)), with 0.3 μg of TCF-Luc reporter plasmid plus 50 ng of Renilla luciferase plasmid (internal control) per well in the 12-well plate. Experiments were repeated at least three times with triplicate for each experiment.

The subject of assay [2] is β-catenin. As to the kind of experiment: Western blot of cytosolic β-catenin in UMR-106 cells. It is filed as cell-based, rat. On the procedure:
(§1) Cells were harvested in cavitation buffer (5 mM HEPES, pH 7.4, 3 mM MgCl2, 1 mM EGTA, 250 mM sucrose) containing protease and phosphatase inhibitors and homogenized by nitrogen cavitation (200 p.s.i., for 5 minutes) in a cell disruption bomb (Parr Instrument Co.; Moline, Ill.). The cell homogenate was centrifuged twice at 700 g for 10 minutes to pellet the nuclei. The supernatant was further centrifuged at 100,000 g (Beckman SW50.1 rotor) for 1 hour to separate the membrane and cytosol fractions, and the resulting membrane pellet was washed three times with cavitation buffer before use in the assays (Zhang et al., Biochem. J. 343:541-9 (1999)). Immunoprecipitation and Western blot analysis of cell lysates were performed as described previously (Wan et al., Am. J. Pathol. 166:1379-92 (2005)).

Assay [3] deals with LRP6. As to the kind of experiment: LRP6 phosphorylation at PPPSP motifs, western blotting with Ab1490, UMR-106 cells. It counts as cell-based, rat. The note with it: cells not given. On the procedure:
as §1
As phosphorylation of LRP6 at the PPPSP motifs plays a crucial role in activating downstream β-catenin signaling by Wnt, whether PTH induces phosphorylation of LRP6 at PPPSP motifs (Mao et al., Mol. Cell. 7:801-9 (2001); Tamai et al., Mol. Cell. 13:149-56 (2004); Davidson et al., Nature 438:867-72 (2005); Zeng et al., Nature 438:873-7 (2005)). Immunoprecipitated LRP6 from extracts of PTH-treated UMR-106 cells were monitored for their phosphorylation, by western blotting, with an antibody that recognizes phosphorylated PPPSP motifs (Ab1490) (Tamai et al., Mol. Cell. 13:149-56 (2004)). […] Phosphorylation of PPPSP motifs is required for axin recruitment from cytoplasm to LRP6 at cell membrane. […] Fz8CRD, a competitive inhibitor of the Wnt receptor Fz (Hsieh et al., Proc. Natl. Acad. Sci. USA 96:3546-55 (1999)), was used to exclude the possibility that these PTH effects are mediated through promotion of Wnts production or sensitization of Wnt-stimulated signaling. […] In contrast, LRP6N blocked PTH-stimulated LRP6 phosphorylation (FIG. 33).

The test system of assay [4] is axin-LRP6 binding. As to the kind of experiment: Co-IP of axin binding to LRP6 in HEK293 cells. It is filed as cell-based. As to the method:
as §1

The subject of assay [5] is β-catenin in osteoblasts. As to the kind of experiment: Immunohistochemistry of β-catenin in bone sections after single-dose injection, rats. It is filed as in vivo, rat. The note with it: for positive staining of β-catenin in osteoblasts: five month-old rats, single i.v. dose 40 μg/kg, 8 hours after injection. As to the method: For the experiments in which rats or mice were administered PTH as single-dose injection, five-month-old male Sprague Dawley rats (Charles River Laboratories; Wilmington, Mass.) or two-month-old male C57BL/J6 mice (Jackson Laboratory; Bar Harbor, Me.) (6 per group) were administered a single dose of either vehicle (1 mM acetic acid in sterile PBS) or PTH (1-34) (Bachem Inc.; Torrance, Calif.) at 40 μg/kg in a volume of 100 μl. In the mouse model, mouse recombinant Wnt3a (R&D Systems; Minneapolis, Minn.) was injected at 25 μg/kg in a volume of 100 μl. All treatments were through bolus intravenous injection via the tail vein. Rats/mice were sacrificed at 0.5, 2, 8 and 24 hours after injection.
Formalin-fixed femur or tibia tissue sections of 5 μm thickness from rats or mice were processed with antigen retrieval and hydrogen peroxide treatment prior to incubation with primary monoclonal antibody specific for β-catenin (BD Biosciences; San Jose, Calif.), goat polyclonal antibody sclerostin (R&D Systems; Minneapolis, Minn.) or rabbit polyclonal phosphorylated LRP6 (Ab1490) for 1 hour at room temperature or overnight at 4° C. Negative controls were obtained by replacing the primary antibodies with irrelevant control isotype IgG. […] In the rat model, numbers of total osteoblasts and numbers of β-catenin- or p-LRP6-positive osteoblasts were counted in three random high power fields at metaphysis subjacent to the epiphyseal growth plates or the diaphyseal hematopoietic bone marrow per specimen, and a total of six specimens in each group were used. In the mouse model, numbers of total osteoblasts and numbers of β-catenin-positive osteoblasts were counted in three random high power fields in a 2-mm square, 1 mm distal to the lowest point of the growth plate in the secondary spongiosa. Numbers of total osteocytes and numbers of sclerostin-positive osteocytes were counted in three random high power fields per trabecular bone section or cortical bone section, and a total of six specimens in each group were used.

For assay [6], the system named is TCF/LEF luciferase reporter. As to the kind of experiment: High-throughput screen validation, TCF/LEF luciferase reporter in osteosarcoma cell line. It counts as cell-based. The following applies: 96-well plate. As to the method: Osteosarcoma cells were plated in a 96 well plate. The cells were transiently transfected with the TCF/LEF luciferase reporter using LipofectAMINE PLUS (Invitrogen; Carlsbad, Calif.). The cells were incubated overnight at 37° C. in OptiMEM-1 serum-free medium with the transfection reagents. The cells were washed and serum-containing medium was added to the cells for 8 hours. The serum-containing medium was replaced with serum-free medium and the cells were stimulated overnight with PTH and WNT3a. Supernatant from the stimulated cells was collected for detection of osteosclerostin, and the cells were subjected to a luciferase assay as previously described (Wan et al., Am. J. Pathol. 166:1379-92 (2005)).
To determine agonists and antagonists of the additive signaling of the PTH receptor and the WNT receptor, (as well as any co-receptors) in bone cells, a high-throughput screen is designed. […] An osteosarcoma cell line is transiently transfected with a TCF/LEF luciferase reporter. The cells are treated with WNT3a and PTH and luciferase activity is determined (FIG. 46).

In assay [7] the target is T1, LRP6-PTH1R complex (Rattus norvegicus, UniProt P25961).
T1 construct: endogenous LRP6 and endogenous PTH1R in UMR-106 cells; endogenous in cells; host or cells: UMR-106
T1 sequence (P25961 27-591): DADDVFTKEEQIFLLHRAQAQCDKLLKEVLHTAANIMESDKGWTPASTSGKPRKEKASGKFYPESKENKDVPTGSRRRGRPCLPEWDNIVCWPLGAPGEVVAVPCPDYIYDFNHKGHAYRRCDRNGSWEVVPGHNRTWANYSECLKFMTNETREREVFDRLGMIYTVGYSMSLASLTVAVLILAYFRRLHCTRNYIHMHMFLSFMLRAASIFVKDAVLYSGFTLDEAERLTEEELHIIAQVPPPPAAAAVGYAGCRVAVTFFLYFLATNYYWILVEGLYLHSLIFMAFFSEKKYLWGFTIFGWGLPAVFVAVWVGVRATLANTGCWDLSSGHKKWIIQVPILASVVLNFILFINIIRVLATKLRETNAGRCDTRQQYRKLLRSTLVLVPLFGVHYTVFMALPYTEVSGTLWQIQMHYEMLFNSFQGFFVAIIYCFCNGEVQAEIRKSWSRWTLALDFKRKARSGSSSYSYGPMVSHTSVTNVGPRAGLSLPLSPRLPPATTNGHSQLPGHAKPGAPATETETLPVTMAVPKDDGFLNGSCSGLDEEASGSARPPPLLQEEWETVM
As to the kind of experiment: Co-immunoprecipitation of endogenous LRP6 and PTH1R in UMR-106 cells. It is filed as cell-based. As to the method:
as §1

Take `O=S(=O)(NCCNC/C=C/c1ccc(Br)cc1)c1cccc2cnccc12` [H89]: the “effect on Wnt3a-stimulated β-catenin-dependent transcription activity (TCF4/LEF luciferase)” value in assay [1] (UMR-106 cells) is “did not affect”. Further, the “effect on PTH-stimulated TCF/LEF luciferase (transcriptional) activity” value in assay [1] is “reduced”. Further, in assay [2], the “effect on PTH-induced β-catenin stabilization” value was “reduced” and the “effect on Wnt3a-stimulated β-catenin stabilization” value is “did not affect”. Also, in assay [3], the “effect on Wnt3a-stimulated LRP6 phosphorylation” value is recorded as “did not affect”. In assay [4] (PTH-treated cells), the “effect on binding of axin to LRP6 in cells treated with PTH” value is “reduced”.
Turning to “PTH (1-34): C-terminal-truncated synthetic analog of PTH with an anabolic effect on bone formation in humans (SVSEIQLMHNLGKHLNSMERVEWLRKKLQDVHNF; Parathyroid hormone; UniProt P01270 32-65, looked up, fragment)”, the “positive staining of β-catenin in osteoblasts” value in assay [5] (diaphyseal bone marrow) is “about 90.24±0.68%”; in assay [5] (metaphysis subjacent to the epiphyseal growth plates) it was 99.08±0.57%. The “expression of β-catenin in preosteoblasts and osteoblasts on the bone surface” value in assay [5] (rats, single dose, trabecular bone, within hours) is given as “induced”.
Consider “PTH (39-84): C-terminal fragment of PTH; binds PTH1R but does not activate PKA (APLAPRDAGSQRPRKKEDNVLVESHEKSLGEADKADVNVLTKAKSQ; Parathyroid hormone; UniProt P01270 70-115, looked up, fragment)”, for which the “activating β-catenin signaling (TCF4/LEF luciferase) compared with PTH (1-84)” value in assay [1] (UMR-106 cells) is on record as “much less effective than PTH (1-84)”. Also, the “altering the stability of β-catenin compared with PTH (1-84)” value in assay [2] is on record as “much less effective than PTH (1-84)”. Moreover, the “inducing axin-LRP6 binding compared with PTH (1-84)” value in assay [4] was “much less effective than PTH (1-84)”.
As for WNT3a, in assay [6], the “stimulation of the TCF/LEF luciferase reporter, treatment alone” value is “stimulates”.

B1: LRP6N: soluble N-terminal (extracellular) domain of LRP6; acts as a dominant-negative in PTH signaling (protein)
chain: APLLLYANRRDLRLVDATNGKENATIVVGGLEDAAAVDFVFSHGLIYWSDVSEEAIKRTEFNKTESVQNVVVSGLLSPDGLACDWLGEKLYWTDSETNRIEVSNLDGSLRKVLFWQELDQPRAIALDPSSGFMYWTDWGEVPKIERAGMDGSSRFIIINSEIYWPNGLTLDYEEQKLYWADAKLNFIHKSNLDGTNRQAVVKGSLPHPFALTLFEDILYWTDWSTHSILACNKYTGEGLREIHSDIFSPMDIHAFSQQRQPNATNPCGIDNGGCSHLCLMSPVKPFYQCACPTGVKLLENGKTCKDGATELLLLARRTDLRRISLDTPDFTDIVLQLEDIRHAIAIDYDPVEGYIYWTDDEVRAIRRSFIDGSGSQFVVTAQIAHPDGIAVDWVARNLYWTDTGTDRIEVTRLNGTMRKILISEDLEEPRAIVLDPMVGYMYWTDWGEIPKIERAALDGSDRVVLVNTSLGWPNGLALDYDEGKIYWGDAKTDKIEVMNTDGTGRRVLVEDKIPHIFGFTLLGDYVYWTDWQRRSIERVHKRSAEREVIIDQLPDLMGLKATNVHRVIGSNPCAEENGGCSHLCLYRPQGLRCACPIGFELISDMKTCIVPEAFLLFSRRADIRRISLETNNNNVAIPLTGVKEASALDFDVTDNRIYWTDISLKTISRAFMNGSALEHVVEFGLDYPEGMAVDWLGKNLYWADTGTNRIEVSKLDGQHRQVLVWKDLDSPRALALDPAEGFMYWTEWGGKPKIDRAAMDGSERTTLVPNVGRANGLTIDYAKRRLYWTDLDTNLIESSNMLGLNREVIADDLPHPFGLTQYQDYIYWTDWSRRSIERANKTSGQNRTIIQGHLDYVMDILVFHSSRQSGWNECASSNGHCSHLCLAVPVGGFVCGCPAHYSLNADNRTCSAPTTFLLFSQKSAINRMVIDEQQSPDIILPIHSLRNVRAIDYDPLDKQLYWIDSRQNMIRKAQEDGSQGFTVVVSSVPSQNLEIQPYDLSIDIYSRYIYWTCEATNVINVTRLDGRSVGVVLKGEQDRPRAVVVNPEKGYMYFTNLQERSPKIERAALDGTEREVLFFSGLSKPIALALDSRLGKLFWADSDLRRIESSDLSGANRIVLEDSNILQPVGLTVFENWLYWIDKQQQMIEKIDMTGREGRTKVQARIAQLSDIHAVKELNLQEYRQHPCAQDNGGCSHICLVKGDGTTRCSCPMHLVLLQDELSCGEPPTCSPQQFTCFTGEIDCIPVAWRCDGFTECEDHSDELNCPVCSESQFQCASGQCIDGALRCNGDANCQDKSDEKNCEVLCLIDQFRCANGQCIGKHKKCDHNVDCSDKSDELDCYPTEEPAPQA
modifications: left off: a dimerising Fc or GST
notes: soluble N-terminal (extracellular) domain of LRP6; acts as a dominant-negative in PTH signaling
With B1, in assay [1], the “effect on PTH-stimulated TCF/LEF luciferase (transcriptional) activity” value is “inhibited”. The “effect on PTH-induced association of endogenous LRP6 with PTH1R” value in assay [7] is given as “blocked”. In addition, in assay [3] (endogenous LRP6), the “effect on PTH-stimulated LRP6 phosphorylation” value was “blocked”.

These data come from patent publication US20110256557A1, “IDENTIFYING PARATHYROID HORMONE AGONISTS AND ANTAGONISTS” (DISCOVERYBIOMED, INC., priority 2008, published 2011).
